Data from PubChem BioAssay (NCI).
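Cells were grown in 96-well plates and exposed to each compound for 48 hours at five concentrations; endpoints were interpolated linearly between bracketing concentrations, or set to the highest concentration if not reached. Here, GI50 denotes the concentration required for 50% inhibition of growth. Definition used: TGI = concentration required for complete inhibition of growth.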

system: MDA-MB-468 breast; test: growth of human tumour cells (NCI), 48 h

Compound	GI50 [µM]	TGI [µM]
Cc1cc(C(=O)Nc2ccc3cc(CN4CCOCC4)ccc3n2)c(C)n1-c1ccccc1	0.171	7.11
O=C(Nc1n[nH]c2cc(-c3ccccc3)ccc12)C1CC1	4	> 25
CCOC(=O)C1CCN(S(=O)(=O)/N=C2/NC(=O)NC2=C(Cl)Cl)CC1	0.387	2.08
COCC[C@H]1CCC/C=C/[C@@H]2C[C@H](O)C[C@H]2[C@H](O)/C=C/C(=O)O1	0.0245	0.0714
CN1CCN(Cc2ccc(NC(=O)c3cncc(C#Cc4cnn5cccnc45)c3)cc2C(F)(F)F)CC1	8.35	22.8
O=C1/C(=C(/c2ccccc2)N2CCOCC2)Cc2ccccc21	0.501	1.9
Cc1ccc(NC(=O)c2cccc(C(C)(C)C#N)c2)cc1Nc1ccc2ncn(C)c(=O)c2c1	15.8	> 100
CCNCCNc1cc(-c2ccc(C(F)(F)F)cc2)c(C#N)c2nc3ccccc3n12	0.688	2.14
C=C(C)[C@H]1Cc2c(ccc3c2O[C@@H]2COc4cc(OC)c(OC)cc4[C@@H]2C3=O)O1	0.0816	> 100
COc1ccc(C(=O)c2cc(OC)c(OC)c(OC)c2)cc1/C=C/C(=O)c1ccc(F)cc1	4.63	27.1
Nc1nc(Nc2cccnc2)sc1C(=O)c1ccccc1F	1.37	4.04
CC/C=C\C[C@H](O)C/C=C1/C(=O)C=C[C@@H]1C/C=C\CCCC(=O)OC	1.68	3.77
NS(=O)(=O)c1ccc(-c2ccc3c(NC(=O)C4CC4)n[nH]c3c2)cc1	> 21.6	> 25
NC(=O)c1cc(Cl)ccc1NC(=O)/C=C/c1ccccc1	1.1	11.5
COc1ccc2[nH]c3c4[nH]c5ccc(OC)cc5c4c4c(c3c2c1)C(=O)NC4=O	> 25	> 25
COc1ccc(-c2nc3ccccn3c2/C=C/C(=O)c2cc(OC)c(OC)c(OC)c2)cc1OC	2.28	5.71
C=C(C)[C@@H]1CC[C@]2(CO)CC[C@]3(C)[C@H](CC[C@@H]4[C@@]5(C)C=C(C#N)C(=O)C(C)(C)[C@@H]5CC[C@]43C)[C@@H]12	1.3	3.85
COc1ccc(C(=O)c2cc(C)c(OC)c(C)c2)cc1OC(=O)CCl	0.0894	75.2
C=C1C(=O)O[C@H]2[C@H]1CC/C(COC(=O)NCCCCNC(=O)OC/C1=C/CC[C@@]3(C)O[C@H]3[C@H]3OC(=O)C(=C)[C@@H]3CC1)=C\CC[C@@]1(C)O[C@@H]21	0.426	2

Compound	GI50 [µM]	TGI [µM]
CC(C)c1ccc(-c2cc(-c3cn[nH]c3-c3ccccn3)ccn2)cc1	10.5	24.7
COc1c(C(=O)/C=C/c2ccccc2)c(O)cc2occc12	6.77	21.4
O=S(=O)(c1ccc(NC(=S)NC23CC4CC(CC(C4)C2)C3)cc1)N1CCCCC1	2.27	6.84
CCc1nc2cc(F)c(/C=C/C(=O)NO)cc2c(=O)n1CCc1ccccc1	0.217	0.761
COC(=O)Nc1nc2ccc(C3(c4ccc(F)cc4)OCCO3)cc2[nH]1	0.159	1.19
COc1ccc(-c2[nH]c3ccc(OC)cc3c2/C=C(\C#N)S(=O)(=O)c2ccccc2)cc1	1.33	44
CN1CCN(CCCNc2nc3ccc(Oc4ccc(NC(=O)Nc5cc(C(F)(F)F)ccc5F)cc4)cc3[nH]2)CC1	3.33	6.57
CC1(C)C(=O)/C(=C\c2cccnc2)C[C@]2(C)[C@H]3CC[C@@H]4[C@H]5[C@H](C(=O)/C=C/c6cccnc6)CC[C@]5(C(=O)O)CC[C@@]4(C)[C@]3(C)CC[C@@H]12	2.14	5.7
CCCC(CCC)NCC(O)c1cc(-c2ccc(C(F)(F)F)cc2)nc(C(F)(F)F)c1 (stereo unspecified)	1.58	2.98
COc1ccccc1CNCCCN1C(=O)c2ccc3c4c(ccc(c24)C1=O)C(=O)N(CCCNCCNCCCN)C3=O	0.456	2.22
COc1cc(OC)c(C(=O)/C=C/c2cccc(C(F)(F)F)c2)c(OC)c1	0.755	2.01
C/C(=N\Nc1ccc(Cl)cn1)c1ccc2ccccc2n1	2.88	> 100
Cc1cc(C)c(NC(=O)c2sc3nc4c(cc3c2N)C(=O)CCC4)c(C)c1	0.651	4.39
COc1cc2ncnc(-n3ncc4cc(NC(=O)Nc5ccccc5)ccc43)c2cc1OC	1.18	3.35
COc1ccc(C(=O)c2cc(C)c(OC)c(C)c2)c(OC)c1O	0.489	> 100
Cc1cc2ncnn2cc1Nc1ncc2c(n1)n(C1CCOCC1)c(=O)n2C	4.37	44.8
CC1=CC(=O)C=CC1=O	1.57	3.21
CCCCC(CC)COC(=O)C[N+](C)(C)CCOC(c1ccccc1)c1ccccc1 (stereo unspecified)	1.46	3.12
COc1ccc(/C=C/c2c(C(=O)/C=C/c3ccccc3)c(C)nc3ccccc23)cc1	1.78	3.48
